# Values of other authors as cited in patent publication US11266683B2, “Antimicrobial and cleansing composition consisting of a polymeric biguanide and EDTA” (priority 2016, dated 2022).
# Like-named read-outs stand apart in the source and are kept apart here.
# Legend:
# [1] = test system: S. aureus
# [2] = test system: fibroblasts
Compound,risk of the bacterium developing resistance [1],effect on fibroblasts ([2]; at higher concentration),effect on fibroblasts ([2]; at lower concentration)
polyhexamethylene biguanide [PHMB],very low,,
[H]/N=C(\N/C(=N/[H])NCCCCCCNC(=N)NC(=N)Nc1ccc(Cl)cc1)Nc1ccc(Cl)cc1 [chlorhexidine],,causes necrosis,induces apoptosis
